Test system: Osteoblasts (Calvarial cells)
Assay: Cytotoxicity test (MTT)
Settings: 1 μM compound, 72 hours, in comparison with vehicle control

Point of comparison: `NC1CCN(c2ccc(Nc3nc(N4CCOCC4)ccc3[N+](=O)[O-])cc2F)CC1` [Compound 255, 2-{[3-fluoro-4-(4-aminopiperidino)]phenylamino}-6-morpholino-3-nitropyridine], “Cell viability (%) Calvarial cell” value 100%. Against it:
- CC1=NCCN1c1ccc([N+](=O)[O-])c(Nc2ccc(N3CCC(O)CC3)c(F)c2)n1 [Compound 240, 2-{[3-fluoro-4-(4-hydroxypiperidino)]phenylamino}-6-[(2-methyl-4,5-dihydro)imidazol-1-yl]-3-nitropyridine] — lower, 97%
- CC(C)(C)Nc1ccc([N+](=O)[O-])c(Nc2ccc(N3CCC(O)CC3)c(F)c2)n1 [Compound 243, 2-{[3-fluoro-4-(4-hydroxypiperidino)]phenylamino}-6-(t-butylamino)-3-nitropyridine] — lower, 97%
- O=[N+]([O-])c1ccc(N2CCNCC2)nc1Nc1ccc(N2CCC(O)CC2)c(F)c1 [Compound 245, 2-{[3-fluoro-4-(4-hydroxypiperidino)]phenylamino}-6-(piperazin-1-yl)-3-nitropyridine] — higher, 101%
- O=[N+]([O-])c1ccc(N2CCOCC2)nc1Nc1ccc(N2CCC(O)CC2)c(F)c1 [Compound 247, 2-{[3-fluoro-4-(4-hydroxypiperidino)]phenylamino}-6-morpholino-3-nitropyridine] — lower, 94%
- CNc1ccc([N+](=O)[O-])c(Nc2ccc(N3CCC(N)CC3)c(F)c2)n1 [Compound 248, 2-{[3-fluoro-4-(4-aminopiperidino)]phenylamino}-6-(methylamino)-3-nitropyridine] — lower, 95%
- CC(C)Nc1ccc([N+](=O)[O-])c(Nc2ccc(N3CCC(N)CC3)c(F)c2)n1 [Compound 249, 2-{[3-fluoro-4-(4-aminopiperidino)]phenylamino}-6-(isopropylamino)-3-nitropyridine] — higher, 101%
- CC(C)CNc1ccc([N+](=O)[O-])c(Nc2ccc(N3CCC(N)CC3)c(F)c2)n1 [Compound 250, 2-{[3-fluoro-4-(4-aminopiperidino)]phenylamino}-6-(isobutylamino)-3-nitropyridine] — lower, 85%
- NC1CCN(c2ccc(Nc3nc(N4CCC(O)CC4)ccc3[N+](=O)[O-])cc2F)CC1 [Compound 251, 2-{[3-fluoro-4-(4-aminopiperidino)]phenylamino}-6-(4-hydroxypiperidino)-3-nitropyridine] — lower, 97%
- CN1CCN(c2ccc([N+](=O)[O-])c(Nc3ccc(N4CCC(N)CC4)c(F)c3)n2)CC1 [Compound 254, 2-{[3-fluoro-4-(4-aminopiperidino)]phenylamino}-6-(4-methylpiperazin-1-yl)-3-nitropyridine] — higher, 101%
- NC1CCN(c2ccc([N+](=O)[O-])c(Nc3ccc(N4CCC(N)CC4)c(F)c3)n2)CC1 [Compound 256] — higher, 104%
- NC1CCN(c2ccc(Nc3nc(NCCCN4CCOCC4)ccc3[N+](=O)[O-])cc2F)CC1 [Compound 260, 2-{[3-fluoro-4-(4-aminopiperidino)]phenylamino}-6-[(3-morpholin-1-yl)propylamino]-3-nitropyridine] — higher, 107%
- CNc1ccc([N+](=O)[O-])c(Nc2ccc(N3CCCCC3C)c(F)c2)n1 (stereo not shown) [Compound 261, 2-{[3-fluoro-4-(2-methylpiperidino)]phenylamino}-6-(methylamino)-3-nitropyridine] — higher, 114%
- CC(C)Nc1ccc([N+](=O)[O-])c(Nc2ccc(N3CCCCC3C)c(F)c2)n1 (stereo not shown) [Compound 262, 2-{[3-fluoro-4-(2-methylpiperidino)]phenylamino}-6-(isopropylamino)-3-nitropyridine] — higher, 109%
- CC(C)CNc1ccc([N+](=O)[O-])c(Nc2ccc(N3CCCCC3C)c(F)c2)n1 (stereo not shown) [Compound 263, 2-{[3-fluoro-4-(2-methylpiperidino)]phenylamino}-6-(isobutylamino)-3-nitropyridine] — higher, 108%
- CC1CCCCN1c1ccc(Nc2nc(NC(C)(C)C)ccc2[N+](=O)[O-])cc1F (stereo not shown) [Compound 264, 2-{[3-fluoro-4-(2-methylpiperidino)]phenylamino}-6-(t-butylamino)-3-nitropyridine] — higher, 117%
- CC1CCCCN1c1ccc(Nc2nc(N3CCC(O)CC3)ccc2[N+](=O)[O-])cc1F (stereo not shown) [Compound 265, 2-{[3-fluoro-4-(2-methylpiperidino)]phenylamino}-6-(4-hydroxypiperidino)-3-nitropyridine] — higher, 104%
- CC1=NCCN1c1ccc([N+](=O)[O-])c(Nc2ccc(N3CCCCC3C)c(F)c2)n1 (stereo not shown) [Compound 266] — higher, 121%
- CC1CCCCN1c1ccc(Nc2nc(N3CCNCC3)ccc2[N+](=O)[O-])cc1F (stereo not shown) [Compound 267, 2-{[3-fluoro-4-(2-methylpiperidino)]phenylamino}-6-(piperazin-1-yl)-3-nitropyridine] — higher, 107%
- CC1CCCCN1c1ccc(Nc2nc(N3CCN(C)CC3)ccc2[N+](=O)[O-])cc1F (stereo not shown) [Compound 268, 2-{[3-fluoro-4-(2-methylpiperidino)]phenylamino}-6-(4-methylpiperazin-1-yl)-3-nitropyridine] — higher, 104%
- CC1CCCCN1c1ccc(Nc2nc(N3CCOCC3)ccc2[N+](=O)[O-])cc1F (stereo not shown) [Compound 269, 2-{[3-fluoro-4-(2-methylpiperidino)]phenylamino}-6-morpholino-3-nitropyridine] — higher, 113%
- CC1CCCCN1c1ccc(Nc2nc(N3CCC(N)CC3)ccc2[N+](=O)[O-])cc1F (stereo not shown) [Compound 270, 2-{[3-fluoro-4-(2-methylpiperidino)]phenylamino}-6-(4-aminopiperidino)-3-nitropyridine] — lower, 95%
- CC1CCCCN1c1ccc(Nc2nc(NCc3ccncc3)ccc2[N+](=O)[O-])cc1F (stereo not shown) [Compound 271, 2-{[3-fluoro-4-(2-methylpiperidino)]phenylamino}-6-[(4-pyridyl)methylamino]-3-nitropyridine] — higher, 107%
- CC1CCCCN1c1ccc(Nc2nc(NCCCn3ccnc3)ccc2[N+](=O)[O-])cc1F (stereo not shown) [Compound 272, 2-{[3-fluoro-4-(2-methylpiperidino)]phenylamino}-6-[(3-imidazol-1-yl)propylamino]-3-nitropyridine] — lower, 98%
- CC1CCCCN1c1ccc(Nc2nc(NCCN3CCOCC3)ccc2[N+](=O)[O-])cc1F (stereo not shown) [Compound 273, 2-{[3-fluoro-4-(2-methylpiperidino)]phenylamino}-6-[2-(morpholin-1-yl)ethylamino]-3-nitropyridine] — higher, 115%
- CC1CCCCN1c1ccc(Nc2nc(NCCCN3CCOCC3)ccc2[N+](=O)[O-])cc1F (stereo not shown) [Compound 274, 2-{[3-fluoro-4-(2-methylpiperidino)]phenylamino}-6-[(3-morpholin-1-yl)propylamino]-3-nitropyridine] — higher, 102%
- CNc1ccc([N+](=O)[O-])c(Nc2ccc(N3CCCC(CO)C3)c(F)c2)n1 (stereo not shown) [Compound 275, 2-{[3-fluoro-4-(3-hydroxymethylpiperidino)]phenylamino}-6-(methylamino)-3-nitropyridine] — higher, 121%
- CC(C)Nc1ccc([N+](=O)[O-])c(Nc2ccc(N3CCCC(CO)C3)c(F)c2)n1 (stereo not shown) [Compound 276, 2-{[3-fluoro-4-(3-hydroxymethylpiperidino)]phenylamino}-6-(isopropylamino)-3-nitropyridine] — higher, 102%
- CC(C)CNc1ccc([N+](=O)[O-])c(Nc2ccc(N3CCCC(CO)C3)c(F)c2)n1 (stereo not shown) [Compound 277, 2-{[3-fluoro-4-(3-hydroxymethylpiperidino)]phenylamino}-6-(isobutylamino)-3-nitropyridine] — higher, 107%
- CC(C)(C)Nc1ccc([N+](=O)[O-])c(Nc2ccc(N3CCCC(CO)C3)c(F)c2)n1 (stereo not shown) [Compound 278, 2-{[3-fluoro-4-(3-hydroxymethylpiperidino)]phenylamino}-6-(t-butylamino)-3-nitropyridine] — higher, 118%
- O=[N+]([O-])c1ccc(N2CCC(O)CC2)nc1Nc1ccc(N2CCCC(CO)C2)c(F)c1 (stereo not shown) [Compound 279, 2-{[3-fluoro-4-(3-hydroxymethylpiperidino)]phenylamino}-6-(4-hydroxypiperidino)-3-nitropyridine] — higher, 102%
- CC1=NCCN1c1ccc([N+](=O)[O-])c(Nc2ccc(N3CCCC(CO)C3)c(F)c2)n1 (stereo not shown) [Compound 280, 2-{[3-fluoro-4-(3-hydroxymethylpiperidino)]phenylamino}-6-[(2-methyl-4,5-dihydro)imidazol-1-yl]-3-nitropyridine] — higher, 103%
- O=[N+]([O-])c1ccc(N2CCNCC2)nc1Nc1ccc(N2CCCC(CO)C2)c(F)c1 (stereo not shown) [Compound 281, 2-{[3-fluoro-4-(3-hydroxymethylpiperidino)]phenylamino}-6-(piperazin-1-yl)-3-nitropyridine] — higher, 107%
- CN1CCN(c2ccc([N+](=O)[O-])c(Nc3ccc(N4CCCC(CO)C4)c(F)c3)n2)CC1 (stereo not shown) [Compound 282, 2-{[3-fluoro-4-(3-hydroxymethylpiperidino)]phenylamino}-6-(4-methylpiperazin-1-yl)-3-nitropyridine] — higher, 107%
- O=[N+]([O-])c1ccc(N2CCOCC2)nc1Nc1ccc(N2CCCC(CO)C2)c(F)c1 (stereo not shown) [Compound 283, 2-{[3-fluoro-4-(3-hydroxymethylpiperidino)]phenylamino}-6-morpholino-3-nitropyridine] — higher, 103%
- NC1CCN(c2ccc([N+](=O)[O-])c(Nc3ccc(N4CCCC(CO)C4)c(F)c3)n2)CC1 (stereo not shown) [Compound 284, 2-{[3-fluoro-4-(3-hydroxymethylpiperidino)]phenylamino}-6-(4-aminopiperidino)-3-nitropyridine] — the same, 100%
- O=[N+]([O-])c1ccc(NCc2cccnc2)nc1Nc1ccc(N2CCCC(CO)C2)c(F)c1 (stereo not shown) [Compound 285, 2-{[3-fluoro-4-(3-hydroxymethylpiperidino)]phenylamino}-6-[(3-pyridyl)methylamino]-3-nitropyridine] — higher, 106%
